In paper PMC7647111, “Antileishmanial compounds from Connarus suberosus: Metabolomics, isolation and mechanism of action” (PLoS ONE, 2020):
≈ marks a conversion by molar mass, not a printed value. Where “and” joins values, the source holds several entries; their conditions need not be identical. Equal values may be shown once. Read-outs that look alike come from different tables or passages of the source.

How the values were obtained:
[1] = test system: L. infantum promastigotes; assay: Antiproliferation assay: L. infantum promastigotes (72 h), MTT; format: cell-based, Leishmania infantum (MCAN/BR/2008/1112); details: 72 h exposure; for IC50: Leishmania infantum, 72 h
Description: (§1) Leishmania amazonensis promastigotes (IFLA/BR/1967/PH8) for the 24 h exposure test were cultivated in RPMI 1640, supplemented with 20% v/v heat inactivated fetal bovine serum (FBS) and incubated at 26°C until near the end of the log growth phase. Leishmania amazonensis (IFLA/BR/1967/PH8) and L. infantum (MCAN/BR/2008/1112) promastigotes used in the 72 h exposure test were cultivated in Warren’s medium (containing brain heart infusion- BHI plus hemin and folic acid), supplemented with 10% FBS, 0.1% of the antibiotics: 100 UI/mL penicillin G and 0.1 mg/mL streptomycin. Leishmania amazonensis (IFLA/BR/1967/PH8) transfected with the red fluorescent protein (RFP) gene was cultured in M199 medium (containing 0.1 mmol/L adenine, 40 mmol/L hepes, 0.0005% hemin and 0.0002% biotin), supplemented with 10% FBS, and 0.1% of the antibiotic. Parasites were maintained at 25°C in a BOD incubator.
(§2) Extracts and isolated compounds were tested against L. amazonensis promastigotes (IFLA/BR/1967/PH8 strain - 2x10^5 cells/well) and L. infantum promastigotes (MCAN/BR/2008/1112 strain - 3x10^5 cells/well). The samples were solubilized in DMSO (<1%), serially diluted (100 μg/mL to 1.56 μg/mL) and tested in a 96-well plate to obtain a dose-response curve. Miltefosine and DMSO were used as positive and negative controls, respectively. After 72 h, 10 μL of 3-(4,5-dimethylthiazol-2-yl)-2,5-diphenyl tetrazolium bromide (5 mg/mL—MTT, Sigma-Aldrich) solution was added to each well and the plate returned to the incubator for an additional 4 h. To halt the reaction, 100 μL acidified isopropanol was added to each well. Plates were read at 570 nm in a microplate reader (Multiskan MS, LabSystems Oy, Helsinki, Finland).

[2] = test system: L. amazonensis amastigotes; assay: L. amazonensis amastigotes assay (RFP parasites in peritoneal macrophages); format: cell-based, Leishmania amazonensis (IFLA/BR/1967/PH8); details: for IC50: Leishmania amazonensis, Peritoneal macrophage, intracellular; for IC50 / activity against L. amazonensis amastigotes (in words): 72 h
Description: Peritoneal macrophages obtained from BALB/c mice were transferred to a 24-well plate (6x10^5 cells/well) in RPMI 1640 medium supplemented with 10% inactivated FBS and 20 mM L-glutamine, pH 7.2. The plate was incubated at 37°C in 5% CO2 for 24 h. After this period, macrophages were infected with L. amazonensis (IFLA/BR/1967/PH8) transfected with RFP in the stationary growth phase using a ratio 1:10 (macrophages/parasites) at 33°C for 4 h. The non-phagocytosed parasites were subsequently removed by extensive PBS wash, and samples added at non-toxic concentrations, in accordance with the cytotoxicity tests (100 μg/mL to 1.56 μg/mL) to determine the IC50 for the intracellular parasite. After 72 h, the supernatant was removed from the wells and 200 μL of deionized water added to each well to lyse the cell membrane. After lysis, the resulting supernatants were transferred to a black 96-well plate. The plate was read in a fluorescence spectrophotometer (FLx800, BioTek Instruments, Inc., Winooski, VT, USA) with 540/600 nm of excitation/emission. Wells containing macrophages infected with L. amazonensis (RFP) […] only were used as negative controls.

Cytotoxicity assay (MTT) = format: cell-based, BALB/c mice; details: female, BALB/c, mouse, 72 h exposure
Description: Female BALB/c mice pre-inoculated with 3% thioglycollate medium were used to obtain macrophages from the peritoneal cavity. Peritoneal exudate was collected 72 h post-inoculation using cold Hank´s Balanced Salt Solution and the assay performed as previously reported. Briefly, peritoneal macrophages in RPMI 1640 medium were transferred to a 96-well plate (2x10^5 cells/well) and incubated at 37°C in 5% CO2 for 24 h to allow adhesion. Samples were serially diluted (100 μg/mL to 0.78 μg/mL), added to the plate with the cells and incubated under the same conditions for 72 h. MTT (10 μL/well) was subsequently added and the plates re-incubated for a further 2 h. To halt the reaction, 100 μL of acidified isopropanol was added to each well. The plate was then read at 570 nm in a microplate reader (Multiskan MS, LabSystems Oy, Helsinki, Finland).

[3] = test system: L. amazonensis promastigotes; assay: Antiproliferation assay: L. amazonensis promastigotes (24 h), resazurin; format: cell-based, Leishmania amazonensis (IFLA/BR/1967/PH8); details: Leishmania amazonensis, after 24 h, read-out: IC50 (CI95)
Description: as §1
Extracts and fractions were tested against L. amazonensis (IFLA/BR/1967/PH8) promastigote cells in a 96-well plate at a concentration of 10^6 cells/well. Each sample was solubilized in DMSO (<1%) since it was not soluble directly in the medium. Extracts were tested at 100 μg/mL and 50 μg/mL. […] Plates were read at 570 nm and 595 nm in a microplate reader (BiochromAsys UVM 340) after cell lysis with sodium dodecyl sulfate (SDS). Viability was calculated based on the equations described by Kulshrestha.

[4] = test system: L. amazonensis promastigotes; assay: Antiproliferation assay: L. amazonensis promastigotes (72 h), MTT; format: cell-based, Leishmania amazonensis (IFLA/BR/1967/PH8); details: 72 h exposure; for IC50: Leishmania amazonensis
Description: as §1, §2

[5] = test system: L. amazonensis promastigotes; assay: Mitochondrial membrane potential (MitoTracker); format: cell-based, Leishmania amazonensis; details: 24 h; 2 at 33.8 μM, 3 at 11.4 μM; FCCP 5.0 μM for 10 min
Description: After 24 h of incubation at 25°C, the parasite concentration was adjusted to 5x10^6 cells/mL and stained with 500 nM MitoTracker (Invitrogen, Eugene, OR, USA) in the dark for 40 min at 37°C. After washing twice with PBS, samples were transferred in triplicate to a black 96-well plate, and fluorescence measured in a spectrofluorometer (FLx800, BioTek Instruments, Inc., Winooski, VT, USA) at 540/600 nm excitation/emission. […] Louis, MO, USA) for 10 min were used to obtain maximal mitochondrial depolarization (positive control).

[6] = test system: L. amazonensis promastigotes; details: cited from earlier work
[7] = test system: L. amazonensis axenic amastigotes; design: method as in PMID 18849135; details: cited from earlier work
L. infantum amastigotes = L. infantum amastigotes assay (Giemsa, infection index); format: cell-based, Leishmania infantum; details: Leishmania infantum; intracellular, 72 h
Description: Peritoneal macrophages (6 x 10^5 cells) were plated on round glass coverslips within 24-well plates in RPMI 1640 medium supplemented with FBS and 20 mM L-glutamine, pH 7.2, and incubated for 24 h at 37°C in 5% CO2. Stationary-phase promastigotes (6 x 10^6 cells, at a ratio of 10 parasites per macrophage) were then added to the wells, and cultures incubated for 24 h at 37°C in 5% CO2. Non-internalized parasites were removed by extensive PBS solution washing and infected macrophages subsequently treated with nontoxic concentrations of: compound 3 (6.25 μg/mL to 0.18 μg/mL) or miltefosine (10.0 μg/mL to 0.6 μg/mL, positive control) for 72 h at 37°C in 5% CO2. After compound exposure, cells were fixed with absolute ethanol and stained with Giemsa. A total of 200 macrophages were counted under a light microscope. The infection index was determined by the […] percentage of infected macrophages multiplied by the mean number of amastigotes per macrophage out of 200 macrophages.

[8] = test system: L. amazonensis promastigotes; assay: Reactive oxygen species (ROS) detection (H2DCFDA); format: cell-based, Leishmania amazonensis
Description: Fluorescence intensity was detected using a fluorimetric microplate reader (FLx800, BioTek Instruments, Inc., Winooski, VT, USA), at 485/528 nm excitation/emission. Promastigotes incubated with miltefosine (44.2 μM) were used as a positive control.

[9] = test system: L. amazonensis promastigotes; assay: Cell membrane integrity (propidium iodide); format: cell-based, Leishmania amazonensis; details: 24 h; 2 at 33.8 μM, 3 at 11.4 μM
Description: Plates were incubated with propidium iodide (PI) (1.0 μg/mL—Sigma-Aldrich, USA, St. Louis, MO, USA) for 15 min in the dark at RT. Fluorescence was measured using a spectrofluorometer (FLx800, BioTek Instruments, Inc., Winooski, VT, USA) with 540/600 nm excitation/emission. Parasites heated at 65 °C were used as the positive control.

[10] = test system: L. amazonensis promastigotes; assay: Neutral lipid quantification (Nile Red); format: cell-based, Leishmania amazonensis; details: 24 h; 2 at 33.8 μM, 3 at 11.4 μM
Description: After 24 h of exposure, the parasites (1x10^7 cells/well) were stained with 10 μg/mL Nile Red (Sigma-Aldrich, St. Louis, MO, USA) in the dark for 20 min at 25°C. Fluorescence intensity was analysed in a spectrofluorometer (BioTek Instruments, Inc., Winooski, VT, USA) using 485/528 nm excitation/emission.

Row | Compound | IC50 [1] | IC50 [2] | CC50 at 72 h (Cytotoxicity assay (MTT); murine peritoneal macrophages) | IC50 [4] | activity against L. amazonensis amastigotes (in words) [2] | other results
1 | COc1ccc2c(c1)OC1c3ccc4c(c3OCC21)C=CC(C)(C)O4 (centres unmarked) [Compound 1, hemileiocarpin] | 20.8 µg/mL and 61.9 µM | 10.6 µg/mL and 31.6 µM | > 100 µg/mL and > 297 µM |  |  | 
2 | C[C@@H]1[C@H](O)[C@@H](C)/C=C/C=C/C=C/C=C/C=C/C=C/C=C/[C@H](O[C@@H]2O[C@H](C)[C@@H](O)[C@H](N)[C@@H]2O)C[C@@H]2O[C@](O)(C[C@@H](O)C[C@@H](O)[C@H](O)CC[C@@H](O)C[C@@H](O)CC(=O)O[C@H]1C)C[C@H](O)[C@H]2C(=O)O [Amphotericin B, reference compound] |  |  |  |  |  | IC50 [3]: < 7.8 µg/mL
3 | CCCCCCCCCCCCCC1=C(O)C(=O)C=C(O)C1=O [Compound 4, rapanone] | 7.2 µg/mL and 24.5 µM | > 3.2 µg/mL and > 10.6 µM | 2.9 µg/mL and 9.8 µM | 50.4 µg/mL and 169 µM | inactive | activity against L. amazonensis promastigotes (in words) [4]: inactivity; Promastigotes IC50 L. infantum [1]: 7.17 ± 0.3 µg/mL
4 | CCCCCCCCCCCC1=C(O)C(=O)C=C(O)C1=O [Compound 5, embelin] | 10.7 µg/mL and 33.2 µM | > 3.2 µg/mL and > 9.7 µM |  | 12.5 µg/mL and 38.9 µM | inactive | CC50 at 72 h (Cytotoxicity assay (MTT); read-out: Cytotoxicity CC50 Murine macrophages): 0.9 µg/mL and 2.6 µM
5 | N#CC(C#N)=NNc1ccc(OC(F)(F)F)cc1 [FCCP, carbonyl cyanide 4-(trifluoro-methoxyl)phenylhydrazone, reference compound] |  |  |  |  |  | reduction in mitochondrial membrane potential (ΔΨm) [5]: 51.6%
6 | CCC(C)C(=O)c1c(O)c(CC=C(C)C)c(O)c2c(-c3ccccc3)cc(=O)oc12 (centres unmarked) [mammea A/BB] |  |  |  |  |  | IC50 promastigotes [6]: 3 µg/mL (≈ 7.38 µM); IC50 axenic amastigotes [7]: 0.88 µg/mL (≈ 2.16 µM)
7 | CCCCCCCCCCCCCCCCOP(=O)([O-])OCC[N+](C)(C)C [Miltefosine, reference compound] | 2.6 µg/mL and 6.5 µM | 5.2 µg/mL and 12.7 µM |  | 9 µg/mL and 22.1 µM |  | SI (Selectivity Index) [2]: 10.4; IC50 (L. infantum amastigotes): 3.7 µM; increase in ROS production ([8]; miltefosine 44.2 μM, positive control): 162.3%
8 | CCCCCCCCCCCCCCCC1=C(O)C(=O)C=C(O)C1=O [Compound 6, suberonone] | 37.2 µg/mL and 106 µM | > 3.2 µg/mL and > 8.9 µM | 4.2 µg/mL and 11.7 µM | 51.9 µg/mL and 149 µM | inactive | activity against L. amazonensis promastigotes (in words) [4]: not considered active; activity against L. infantum promastigotes (in words) [1]: not considered active
9 | CC1(C)C=Cc2c(ccc3c2OCC2c4cc5c(cc4OC32)OCO5)O1 (centres unmarked) [Compound 2, leiocarpin] | 15.5 µg/mL and 44.3 µM | 7.1 µg/mL and 20.4 µM | 39 µg/mL and 116 µM | 11.4 µg/mL and 33.8 µM |  | SI (Selectivity Index) ([2]; CC50 macrophages / IC50 L. amazonensis amastigotes): 5.7; reduction in mitochondrial membrane potential (ΔΨm) [5]: 37.6%; ROS level ([8]; 24 h, 2 at 33.8 μM, 3 at 11.4 μM): no alteration in the ROS level; plasma membrane integrity (PI-positive parasites) [9]: significant increase in the percentage of PI-positive parasites; increase in neutral lipid levels in relation to the untreated control [10]: 86.9%
